# Laboratory results: ChEMBL document CHEMBL1201862, “PubChem BioAssay data set” (2004)
# Calls of active or inactive are those of the source.
# Assays:
# [1] = NIH-3T3 fibroblast cytotoxicity, dose response, cytotoxicity control, cell-based, fluorescence, Alamar Blue, secondary assay (AID 2327); format: functional;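 note: NIH-3T3 mouse fibroblasts cultured with fluconazole at 8 µg/mL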
# [2] = fluconazole-exposed Candida albicans growth modulators – fluorescence, retest, confirmation (AID 2467); format: functional, cell-based
# [3] = biological target: T1, Rac GTPase-activating protein 1 (Homo sapiens, UniProt Q9H0H5); experiment: blockers of MgcRacGAP-driven Rac1 GTP hydrolysis – biochemical, ADP Hunter fluorescence, primary and confirmatory, confirmation (AID 624330); format: functional
# T1 sequence (Q9H0H5 whole entry): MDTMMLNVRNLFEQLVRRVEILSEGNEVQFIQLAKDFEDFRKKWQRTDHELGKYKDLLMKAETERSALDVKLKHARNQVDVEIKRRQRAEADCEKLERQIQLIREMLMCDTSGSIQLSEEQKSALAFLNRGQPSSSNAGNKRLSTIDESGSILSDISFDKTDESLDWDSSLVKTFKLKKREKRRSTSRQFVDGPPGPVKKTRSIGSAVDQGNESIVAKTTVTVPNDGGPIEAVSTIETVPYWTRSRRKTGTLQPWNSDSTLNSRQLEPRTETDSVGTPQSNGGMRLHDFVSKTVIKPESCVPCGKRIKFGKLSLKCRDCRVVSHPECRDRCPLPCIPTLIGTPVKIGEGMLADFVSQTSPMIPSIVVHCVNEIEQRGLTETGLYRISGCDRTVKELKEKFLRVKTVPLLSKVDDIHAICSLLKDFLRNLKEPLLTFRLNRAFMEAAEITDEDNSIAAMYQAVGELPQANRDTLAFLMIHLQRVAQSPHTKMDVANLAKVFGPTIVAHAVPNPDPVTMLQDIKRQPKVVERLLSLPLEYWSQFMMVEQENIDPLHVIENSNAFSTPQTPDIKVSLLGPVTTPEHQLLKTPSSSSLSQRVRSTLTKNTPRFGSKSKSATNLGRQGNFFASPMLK
# [4] = biological target: Nonstructural protein 1 (Influenza A virus, UniProt Q194T2); format: functional, Influenza A virus (A/California/07/2009(H1N1))
# Sequence of Nonstructural protein 1 (Q194T2 whole entry, the tested form may be a part): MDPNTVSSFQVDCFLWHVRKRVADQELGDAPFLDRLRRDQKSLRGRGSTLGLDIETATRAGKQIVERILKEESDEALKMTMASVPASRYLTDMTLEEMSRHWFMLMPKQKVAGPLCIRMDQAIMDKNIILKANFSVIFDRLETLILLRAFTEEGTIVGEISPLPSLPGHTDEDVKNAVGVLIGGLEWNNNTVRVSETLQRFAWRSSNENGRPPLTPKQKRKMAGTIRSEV
# [5] = biological target: T2, RNA-binding protein pos-1 (Caenorhabditis elegans, UniProt G5EF15); experiment: disruptors of C. elegans POS-1 RNA interaction – biochemical, fluorescence polarization, dose response (AID 1964);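 note: purified POS-1 fused to maltose binding protein made in E. coli; potency of compounds blocking POS-1 binding to fluorescent RNA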
# T2 sequence (G5EF15 whole entry): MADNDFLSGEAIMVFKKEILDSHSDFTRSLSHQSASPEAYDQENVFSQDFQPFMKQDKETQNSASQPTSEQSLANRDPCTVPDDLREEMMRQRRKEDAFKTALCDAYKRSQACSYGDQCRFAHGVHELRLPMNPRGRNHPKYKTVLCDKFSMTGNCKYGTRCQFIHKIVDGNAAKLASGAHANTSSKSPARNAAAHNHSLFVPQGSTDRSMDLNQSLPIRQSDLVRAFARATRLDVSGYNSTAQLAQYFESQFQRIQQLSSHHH
# [6] = biological target: T3, Zinc finger protein mex-5 (Caenorhabditis elegans, UniProt Q9XUB2); experiment: potency of MEX-5 RNA-binding blockers – biochemical, C. elegans, fluorescence polarization, dose response (AID 1960)
# T3 sequence (Q9XUB2 whole entry): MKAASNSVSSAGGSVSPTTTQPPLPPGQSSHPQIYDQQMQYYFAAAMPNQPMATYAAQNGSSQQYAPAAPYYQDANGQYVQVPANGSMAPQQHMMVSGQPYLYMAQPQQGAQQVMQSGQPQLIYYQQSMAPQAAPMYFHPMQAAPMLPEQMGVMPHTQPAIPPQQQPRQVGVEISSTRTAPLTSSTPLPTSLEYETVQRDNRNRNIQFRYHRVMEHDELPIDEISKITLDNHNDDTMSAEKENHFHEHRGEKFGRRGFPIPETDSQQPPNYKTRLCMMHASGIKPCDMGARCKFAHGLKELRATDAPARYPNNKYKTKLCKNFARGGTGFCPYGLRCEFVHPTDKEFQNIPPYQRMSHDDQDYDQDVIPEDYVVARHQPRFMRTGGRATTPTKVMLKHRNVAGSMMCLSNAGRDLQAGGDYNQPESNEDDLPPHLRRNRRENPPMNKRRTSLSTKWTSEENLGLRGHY
# [7] = biological target: T4, Heat shock factor protein 1 (Mus musculus, UniProt P38532); experiment: enhancement of HSF1-driven luciferase signal – cell-based, NIH3T3, luminescence, dose retest, confirmation (AID 435004); format: functional;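 note: stress induced by proteasome inhibitor MG132 added 30 min after compound; luciferase reporter driven by HSF1 response element in NIH3T3 cells; actives raise luminescence as potentiators of the MG132 stress response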
# T4 sequence (P38532 whole entry): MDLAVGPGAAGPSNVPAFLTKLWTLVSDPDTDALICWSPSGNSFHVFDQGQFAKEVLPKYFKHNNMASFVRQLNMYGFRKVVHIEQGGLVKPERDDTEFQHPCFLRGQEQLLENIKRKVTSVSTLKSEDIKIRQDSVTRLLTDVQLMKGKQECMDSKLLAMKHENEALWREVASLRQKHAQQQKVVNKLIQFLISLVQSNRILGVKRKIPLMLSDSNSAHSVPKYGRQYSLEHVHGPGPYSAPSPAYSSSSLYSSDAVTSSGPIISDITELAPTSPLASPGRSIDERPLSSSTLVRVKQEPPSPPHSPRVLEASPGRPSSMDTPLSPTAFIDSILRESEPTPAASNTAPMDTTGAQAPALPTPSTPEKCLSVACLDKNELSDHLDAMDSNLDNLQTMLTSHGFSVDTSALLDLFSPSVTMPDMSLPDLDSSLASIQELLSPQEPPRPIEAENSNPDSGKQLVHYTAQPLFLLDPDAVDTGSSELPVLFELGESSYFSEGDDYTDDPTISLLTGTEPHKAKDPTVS
# [8] = biological target: T5, Replicative DNA helicase DnaB (Mycobacterium tuberculosis, UniProt P9WMR3); experiment: DnaB intein splicing inhibitors, dose response, biochemical, cell-free fluorescence (AID 449749); format: functional
# T5 sequence (P9WMR3 whole entry): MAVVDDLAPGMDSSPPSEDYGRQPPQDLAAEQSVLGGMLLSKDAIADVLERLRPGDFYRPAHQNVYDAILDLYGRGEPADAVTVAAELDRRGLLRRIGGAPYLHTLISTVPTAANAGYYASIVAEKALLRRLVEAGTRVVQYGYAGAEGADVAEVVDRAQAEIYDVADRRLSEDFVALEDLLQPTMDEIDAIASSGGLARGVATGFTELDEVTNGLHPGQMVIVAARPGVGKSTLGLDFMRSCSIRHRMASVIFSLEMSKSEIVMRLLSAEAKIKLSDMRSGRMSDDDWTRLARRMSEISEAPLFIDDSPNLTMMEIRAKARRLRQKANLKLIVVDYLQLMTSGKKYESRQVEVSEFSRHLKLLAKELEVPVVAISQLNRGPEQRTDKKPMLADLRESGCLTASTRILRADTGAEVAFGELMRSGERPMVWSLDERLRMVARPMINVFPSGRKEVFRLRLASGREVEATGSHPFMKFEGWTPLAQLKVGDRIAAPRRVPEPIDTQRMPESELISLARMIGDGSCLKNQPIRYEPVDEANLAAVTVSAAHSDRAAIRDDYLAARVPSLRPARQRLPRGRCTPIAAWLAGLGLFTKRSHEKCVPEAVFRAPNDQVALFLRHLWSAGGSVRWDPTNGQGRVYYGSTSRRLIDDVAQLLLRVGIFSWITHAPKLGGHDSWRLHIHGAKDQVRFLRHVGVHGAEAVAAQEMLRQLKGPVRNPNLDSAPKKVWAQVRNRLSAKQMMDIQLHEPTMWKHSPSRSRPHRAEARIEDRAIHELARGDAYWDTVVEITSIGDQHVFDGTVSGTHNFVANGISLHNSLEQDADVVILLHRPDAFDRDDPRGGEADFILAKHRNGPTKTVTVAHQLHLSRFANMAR
# [9] = biological target: T6, Protein RecA (Mycobacterium tuberculosis, UniProt P9WHJ3); experiment: Fluorescence Cell-Free Homogeneous Dose Retest to Identify Inhibitors of RecA-Intein Splicing Activity. [Related pubchem assays (depositor defined):AID2097, AID2223, AID489010, AID492950]; format: functional
# T6 sequence (P9WHJ3 whole entry): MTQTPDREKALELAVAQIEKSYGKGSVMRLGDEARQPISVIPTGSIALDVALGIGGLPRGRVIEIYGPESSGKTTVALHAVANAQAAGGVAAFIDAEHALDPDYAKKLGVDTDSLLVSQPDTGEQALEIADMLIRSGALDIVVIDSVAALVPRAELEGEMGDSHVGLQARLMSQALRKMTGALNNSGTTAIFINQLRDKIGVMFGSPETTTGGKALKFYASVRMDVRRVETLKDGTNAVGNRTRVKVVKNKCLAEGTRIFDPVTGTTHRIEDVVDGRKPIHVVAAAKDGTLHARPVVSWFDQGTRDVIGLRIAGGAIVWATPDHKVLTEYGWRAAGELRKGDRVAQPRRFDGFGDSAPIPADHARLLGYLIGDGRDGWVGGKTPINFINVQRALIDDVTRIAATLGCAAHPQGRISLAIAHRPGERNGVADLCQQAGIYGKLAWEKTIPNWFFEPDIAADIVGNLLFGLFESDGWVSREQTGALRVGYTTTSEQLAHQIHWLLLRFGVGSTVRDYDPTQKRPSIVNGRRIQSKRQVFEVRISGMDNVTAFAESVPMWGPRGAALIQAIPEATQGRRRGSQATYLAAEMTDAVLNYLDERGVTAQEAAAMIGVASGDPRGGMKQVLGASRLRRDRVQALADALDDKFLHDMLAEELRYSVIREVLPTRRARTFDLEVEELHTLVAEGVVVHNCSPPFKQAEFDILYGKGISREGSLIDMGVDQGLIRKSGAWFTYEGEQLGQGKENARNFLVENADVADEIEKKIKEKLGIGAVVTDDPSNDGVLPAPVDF
# [10] = HIV-1 AD8 envelope cell-cell fusion blockers – cherry-pick, dose response (AID 652062); format: functional, cell-based;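 note: luciferase signal from cell-cell fusion driven by HIV-1 clade B AD8 Env; potency is for inhibitors of fusion seen as a drop in luminescence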
# [11] = system: INS1; experiment: INS-1E survival protection against cytokine death – cell-based, luminescence, retest, dose response (AID 449756); format: functional; details: Rattus norvegicus;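 note: cell death triggered by IL-1 beta plus TNF-alpha plus IFN-gamma mixture; protective hits raise ATP signal compared with cytokine alone wells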
structure (smiles),measurement,setting,value
Cc1nn(-c2ccccc2)c(C)c1C(=O)Nc1nnc(-c2ccco2)o1,EC50,[1],> 150 µM (inactive)
same,EC50,[2],1.03 µM (active)
O=C(c1cccc(F)c1)N1CCN(Cc2cccc(Br)c2)CC1,IC50,[3],136 µM (active)
COc1ccc(OCCOCCN2CCN(C)CC2)cc1,IC50,[3],70.2 µM (active)
Cc1cccc(-n2cnc(C(=O)NN=C(S)Nc3ccc(Cl)cc3)c2)n1,IC50,[4],8.22 µM (active)
COc1ccc(NC2CCCN(C(=O)COc3ccc(Cl)cc3C)C2)cc1OC (configuration not stated),IC50,[3],110 µM (active)
COc1cc(C2CC(=O)Oc3c(C(CCN4CCCC(C)C4)c4ccc(N(C)C)cc4)c(OC)cc(OC)c32)cc(OC)c1OC (configuration not stated),IC50,[4],28.5 µM (active)
COc1ccc(C(=O)On2c(-c3ccc(Br)cc3)nc3ccccc3c2=O)cc1,EC50,[1],6.36 µM (inconclusive)
same,EC50,[2],1.8 µM (active)
CC(C)(C)c1ccc(SCC(N)=O)cc1,EC50,[1],> 150 µM (inconclusive)
same,EC50,[2],> 38 µM (not active)
O=[N+]([O-])c1cc(Br)c2nsnc2c1N1CCOCC1,IC50,[4],27.5 µM (active)
COc1ccc(N2CCN(CC(=O)N3c4ccccc4CC3C)CC2)cc1 (configuration not stated),IC50,[3],79.7 µM (active)
Cc1cc(Cl)ccc1NNC(=O)c1c(C)noc1C,EC50,[1],32.7 µM (active)
same,EC50,[2],> 38 µM (not active)
CN1CCc2c(sc3c2C(=O)NC(c2ccccn2)N3)C1 (configuration not stated),EC50,[5],15.1 µM (active)
same,EC50,[6],14.3 µM (active)
same,IC50,[4],13.7 µM (active)
COc1cc(OC)cc(-c2nnc(Sc3ccc(C=O)cc3[N+](=O)[O-])o2)c1,EC50,[7],> 260 µM (inactive)
same,AC50,[8],6.58 µM (active)
same,EC50,[9],2.04 µM (active)
O=C(COC(=O)c1cccc(S(=O)(=O)N2CCOCC2)c1)NCc1ccccc1,AC50,[10],59.6 µM (active)
COc1ccc(S(=O)(=O)NC[C@@H]2CC[C@H]3[C@H](CN3Cc3cc(F)ccc3F)O2)cc1,AC50,[10],1.21 µM (active)
O=C(C[C@@H]1C[C@H]2c3cc(NC(=O)C4CCC4)ccc3O[C@H]2[C@H](CO)O1)NCC(F)(F)F,AC50,[10],1.7 µM (active)
NC(=S)N/N=C/c1ccccc1O,IC50,[4],14.1 µM (active)
same,AC50,[11],0.945 µM (active)
CSc1nc(Cl)c(C#N)c(-c2ccc(C)cc2)n1,EC50,[1],> 150 µM (inconclusive)
same,EC50,[2],1.55 µM (active)
O=[N+]([O-])c1cc(/C=N/Nc2nc(N3CCCCC3)nc(N3CCCCC3)n2)ccc1O,IC50,[4],> 100 µM (active)
O=C(Cc1cccs1)N/N=C\c1ccc(O)cc1,IC50,[3],39.3 µM (active)
CCOC(=O)CC(/C(C)=N\O)c1ccccc1 (configuration not stated),EC50,[1],> 160 µM (inactive)
same,EC50,[2],> 38 µM (not active)
